Measured values published in patent publication US20260274859A1, “FUSED POLYCYCLIC DERIVATIVE AND USE THEREOF” (ZHEJIANG HISUN PHARMACEUTICAL CO., LTD., priority 2023, published 2026).

What was measured:
Assay type in all cases: cell-based
[1] = system: HL60 cells; experiment: Inhibition of proliferation of HL60 tumor cells (CCK8 or CTG); conditions: Homo sapiens, HL-60
Protocol: The effect of the compound of the present disclosure on the proliferation of tumor cells was determined using the following method. The HL60 cells used in the method were purchased from Nanjing Kebai Biotechnology Co., Ltd., and the kit was the Cell Counting Kit-8/CCK-8 kit of MCE Company (article number: HY—K0301, specification: 3000T).
(1) HL60 cells in logarithmic growth phase were prepared into a cell suspension. The cell suspension was added into a 96-well plate at 5000 cells/well. The 96-well cell culture plate was placed in a CO2 incubator for 4 h of incubation of suspended cells or for 12 h of incubation of adherent cells.
(2) The compounds to be tested were diluted with IMDM complete culture medium to reach a concentration twice the testing concentration, and added to the corresponding wells.
(§1) (3) After the corresponding concentrations of the compounds to be tested were added, the plates were incubated in an incubator with 5% carbon dioxide at 37° C., and then the cell viability rate at each drug concentration was determined by CCK8 or CTG method. In addition, the IC50 value was calculated.

[2] = system: HK-2 cells; experiment: Inhibition of proliferation of HK-2 cells (normal cells; CCK8 or CTG); conditions: Homo sapiens, maximum concentration 10 μM, 5-fold dilution
Protocol: (1) HK-2 cells in the logarithmic growth phase were digested with 0.25% trypsin and counted. The cells were inoculated into 96-well plates at 2000 cells per well, and the 96-well plates were placed and cultured in an incubator containing 5% CO2 at 37° C. for 12 h.
(§2) (2) Six concentration gradients for the compound to be tested (with the maximum drug concentration of 10 μM and 5-fold dilution) were set. After the cells adhered to the wall, the compounds to be tested were serially diluted with DMSO, then diluted with 1640 complete medium to reach a concentration 1000 times the final concentration, and added to the corresponding wells.
as §1

[3] = system: A549 cells; experiment: Inhibition of proliferation of A549 cells (CCK8 or CTG); conditions: Homo sapiens, maximum concentration 10 μM, 5-fold dilution
Protocol: (1) A549 cells in the logarithmic growth phase were digested with 0.25% trypsin and counted. The cells were inoculated into 96-well plates at 2000 cells per well, and the 96-well plates were placed in an incubator containing 5% CO2 at 37° C. for 12 h of culture.
as §2, with “for the compounds to be” for “for the compound to be”
as §1

IC50 [1] [nM]	IC50 [3] [nM]	SMILES	IC50 [2] [nM]
< 150	2.77	CC(C)(C)NC1CC(C(=O)Nc2sc3c(c2-c2nc4ccc(C5=CCNCC5)cc4s2)CCNC3)C1 (stereo not drawn) [Compound 120, 3-(tert-butylamino)-N-(3-(6-(1,2,3,6-tetrahydropyridin-4-yl)benzo[d]thiazol-2-yl)-4,5,6,7-tetrahydrothieno [2,3-c]pyridin-2-yl) cyclobutane-1-carboxamide]	760
150 to 1500	74	COCCNCCC(=O)Nc1sc2c(c1-c1nc3cc(-n4cnc(C)c4)ccc3s1)CCNC2 [Compound a, reference compound]	520
